# Columns and labels:
# Assay type in all cases: physicochemical
# [1] = Dissolution of amoxicillin particles in simulated gastric fluid
# Protocol: (§1) The particles were subjected to dissolution tests in simulated gastric fluid (SGF) at pH 1.2 simulated intestinal fluid (SIF) at pH 6.8. The SGF and SIF were prepared per USP specs (USP XXII-NF XVII, pp. 1788-1789, 1990). Selected samples were also tested in SGF at pH 5.0, in pH 1.2 and 5.0 acids, and in pH 6.8 buffer. The pH 1.2 and 5.0 acids were prepared the same way as the corresponding SGF's, except no enzymes were added. Similarly, the pH 6.8 buffer was prepared the same way as the SIF, except no enzyme was added. The dissolution test was conducted using apparatus 2 assembly, as specified by USP (USP XXII-NF XVII, pp. 1578-1579, 1990). The nominal capacity of the dissolution vessel was 1000 mL. A peddle was used as the stirring element at a rotational speed of 50 rpm. The temperature was maintained at 37°+0.5° C. using a circulating water bath. The solution was sampled at 0.5, 1, and 2 hours for the test in SGF, and at 1, 3, and 6 hours for the test in SIF. A 10-mL aliquot was drawn at each sampling time through a 35 micron filter. […] The particles manufactured in this example were subjected to dissolution testing as described in Example 1. Selected particle samples were subjected to sequential dissolution testing as described in Example 2. […] The column was C-18. […] The detector was UV at 230 nm. A pure amoxicillin trihydrate (AMX1), which was calibrated with an USP reference standard, was used as the working standard. For dissolution sample analysis, the standard was dissolved in the mobile phase. For zein-coated drug analysis, both the sample and the standard were dissolved by mixing with 5 mL methanol for 2-5 minutes and then diluting with the mobile phase to the desired level.
# [2] = Dissolution of amoxicillin particles in simulated intestinal fluid
# Protocol: as §1
# [3] = Dissolution of acetaminophen (APAP) particles in simulated gastric fluid (USP apparatus 2)
# Protocol: (§2) The particles were subjected to dissolution tests in simulated gastric fluid (SGF) at pH 1.2 simulated intestinal fluid (SIF) at pH 6.8. The SGF and SIF were prepared per USP specs (USP XXII-NF XVII, pp. 1788-1789, 1990). Selected samples were also tested in SGF at pH 5.0, in pH 1.2 and 5.0 acids, and in pH 6.8 buffer. The pH 1.2 and 5.0 acids were prepared the same way as the corresponding SGF's, except no enzymes were added. Similarly, the pH 6.8 buffer was prepared the same way as the SIF, except no enzyme was added. The dissolution test was conducted using apparatus 2 assembly, as specified by USP (USP XXII-NF XVII, pp. 1578-1579, 1990). The nominal capacity of the dissolution vessel was 1000 mL. A peddle was used as the stirring element at a rotational speed of 50 rpm. The temperature was maintained at 37°+0.5° C. using a circulating water bath. The solution was sampled at 0.5, 1, and 2 hours for the test in SGF, and at 1, 3, and 6 hours for the test in SIF. A 10-mL aliquot was drawn at each sampling time through a 35 micron filter. The aliquot was then filtered again through a 0.45 micron filter for HPLC analysis to determine its drug content. An HPLC method was developed for the determination of acetaminophen in zein-coated powders and in dissolution samples from various media. Zein-coated powders were dissolved in methanol for analysis. An acetaminophen USP reference standard was used for the quantitation. For zein-coated drug analysis, the standard was prepared in methanol. For dissolution sample analysis, the standard was prepared in water. Each sample or standard solution was then filtered through a 0.45 micron filter for HPLC analysis. A C-18 column connected with an UV detector at 244 nm was used for the HPLC analysis. The mobile phase was water/methanol (85/15, v/v) at a flow rate of 1.0 mL/min. The analysis time was 18-20 min/injection.
# [4] = Dissolution of acetaminophen (APAP) particles in simulated intestinal fluid (USP apparatus 2)
# Protocol: as §2
# [5] = Suspension stability study: APAP released in syrup
# Text: The concept that stability in an aqueous suspension is primarily controlled by the exterior coating layer is supported by studies performed on acetaminophen (APAP). Acetaminophen was coated with various combinations of zein and Eudragit®. […] The composition of these syrups was similar to those used for the amoxicillin suspensions (compare Tables 12 and 14). A description of the manufacture of the APP27 particles is set forth above in Example 3; for APP32 particles in Example 3; for APP42 particles in Example 5; and for APP46 particles in Example 5. The particles identified in the tables as as "APAP" are uncoated acetaminophen. APP27 and 32 were suspended at 250 mg per 5 ml in a syrup at pH 8.1 and APP42 and 46 were each suspended at the same concentration in syrups at both pH 5.0 and 8.1 respectively. For analysis of samples in sucrose-based syrups, the samples were diluted 50-400 folds with water and then filtered through a 0.45 micron filter for HPLC analysis. The dilution was necessary for proper UW detection and to minimize the effect of matrix on column performance. The methanol content of the aqueous mobile phase was adjusted between 2 and 15%, pending the performance of the C-18 column used.
# [6] = Suspension stability study: amoxicillin released in syrup; settings: 30° C.
# Protocol: Samples of particles having each of the structure from Table 11 were suspended at a concentration of 250 mg amoxicillin per 5 ml in sucrose-based syrups adjusted to different pH's, the formulations of these syrups are set forth in Table 12, were stored at 30° C. and shaken daily. Samples were removed for testing at 1 hours, 1 day, 7 days and 14 days. Encapsulated drug and undissolved particulate matter were removed from the suspensions by filtration through a 35 micron filter. The clarified syrups were diluted with mobile phase of pH 5.0 potassium phosphate buffer containing 4% acetonitrile and filtered again through a 0.45 micron filter prior to analysis by high pressure liquid chromatography (HPLC). The method of quantitating the amount of amoxicillin released in the syrup solutions was adapted from the USP method for amoxicillin described on pages 2088-2089 of Supplement 1 in USP XXII-NF XVII.
smiles,measurement,setting,value
"CC1(C)S[C@@H]2[C@H](NC(=O)[C@H](N)c3ccc(O)cc3)C(=O)N2[C@H]1C(=O)O [AMX23, amoxicillin]","Cumulative % Release of Amoxicillin, 0.5 hr","[1]; In SGF, pH 1.2, 0.5 hr",53%
same,"Cumulative % Release of Amoxicillin, 1 hr","[1]; In SGF, pH 1.2, 1 hr",45%
same,"Cumulative % Release of Amoxicillin, 2 hr","[1]; In SGF, pH 1.2, 2 hr",36%
same,release of amoxicillin in simulated gastric fluid (in words),[1]; SGF pH 1.2,rapid release
same,"Cumulative % Release of Amoxicillin, 1 hr","[2]; In SIF, pH 6.8, 1 hr",83%
same,"Cumulative % Release of Amoxicillin, 3 hr","[2]; In SIF, pH 6.8, 3 hr",91%
same,"Cumulative % Release of Amoxicillin, 6 hr","[2]; In SIF, pH 6.8, 6 hr",93%
same,release of amoxicillin in simulated intestinal fluid (in words),[2]; SIF pH 6.8,quite rapidly
"CC(=O)Nc1ccc(O)cc1 [APP21, Acetaminophen]","Cumulative % Release of APAP, 0.5 hr","[3]; In SGF, pH 1.2, 0.5 hr",97%
same,"Cumulative % Release of APAP, 1 hr","[3]; In SGF, pH 1.2, 1 hr",97%
same,"Cumulative % Release of APAP, 2 hr","[3]; In SGF, pH 1.2, 2 hr",98%
same,release of APAP in simulated gastric fluid (in words),[3]; SGF pH 1.2,dissolved in gastric fluid very quickly
same,"Cumulative % Release of APAP, 1 hr","[4]; In SIF, pH 6.8, 1 hr",98%
same,"Cumulative % Release of APAP, 3 hr","[4]; In SIF, pH 6.8, 3 hr",101%
same,"Cumulative % Release of APAP, 6 hr","[4]; In SIF, pH 6.8, 6 hr",102%
same,release of APAP in simulated intestinal fluid (in words),[4]; SIF pH 6.8,dissolved fairly rapidly
"CC(=O)Nc1ccc(O)cc1 [APAP, acetaminophen]",Percent APAP Released in Syrup,"[5]; Table 15, syrup at pH 8.1, 1 Hr",20.0%
same,Percent APAP Released in Syrup,"[5]; Table 15, syrup at pH 8.1, 28 Days",23.0%
same,Percent APAP Released in Syrup,"[5]; Table 16, syrup pH 5.0, 1 Day",31.9%
same,Percent APAP Released in Syrup,"[5]; Table 16, syrup pH 5.0, 1 Hr",20.2%
same,Percent APAP Released in Syrup,"[5]; Table 16, syrup pH 5.0, 7 Days",26.5%
same,Percent APAP Released in Syrup,"[5]; Table 16, syrup pH 5.0, 14 Days",24.9%
same,Percent APAP Released in Syrup,"[5]; Table 16, syrup pH 8.1, 1 Day",27.5%
same,Percent APAP Released in Syrup,"[5]; Table 16, syrup pH 8.1, 1 Hr",7.7%
same,Percent APAP Released in Syrup,"[5]; Table 16, syrup pH 8.1, 7 Days",29.8%
same,Percent APAP Released in Syrup,"[5]; Table 16, syrup pH 8.1, 14 Days",28.0%
"CC1(C)S[C@@H]2[C@H](NC(=O)[C@H](N)c3ccc(O)cc3)C(=O)N2[C@H]1C(=O)O [AMX1, amoxicillin trihydrate]",Percent Amoxicillin Released in Syrup,"[6]; Syrup at pH 5.0, 1 Day",9.3%
same,Percent Amoxicillin Released in Syrup,"[6]; Syrup at pH 5.0, 1 Hr",7.4%
same,Percent Amoxicillin Released in Syrup,"[6]; Syrup at pH 5.0, 7 Days",11.3%
same,Percent Amoxicillin Released in Syrup,"[6]; Syrup at pH 5.0, 14 Days",9.0%
same,Percent Amoxicillin Released in Syrup,"[6]; Syrup at pH 6.5, 1 Day",9.6%
same,Percent Amoxicillin Released in Syrup,"[6]; Syrup at pH 6.5, 1 Hr",8.6%
same,Percent Amoxicillin Released in Syrup,"[6]; Syrup at pH 6.5, 7 Days",14.6%
same,Percent Amoxicillin Released in Syrup,"[6]; Syrup at pH 6.5, 14 Days",10.9%
same,Percent Amoxicillin Released in Syrup,"[6]; Syrup at pH 8.5, 1 Day",2.8%
same,Percent Amoxicillin Released in Syrup,"[6]; Syrup at pH 8.5, 1 Hr",19.5%
same,Percent Amoxicillin Released in Syrup,"[6]; Syrup at pH 8.5, 7 Days",9.6%
same,Percent Amoxicillin Released in Syrup,"[6]; Syrup at pH 8.5, 14 Days",5.7%
